Assay results from patent US20220211691A1, “TREATMENT OF DRY EYE DISEASE” (Aldeyra Therapeutics, Inc., priority 2021, published 2022).

How the values were obtained:
Format in all cases: in vivo, human
[1] = test system: subjects with dry eye disease; assay: CAE clinical study, initial cohort, Day 1 dry eye assessments; details: N = 12; for Schirmer's Test, Change From Baseline: Day 1, after a single dose, vehicle +1.3, P-Value 0.30; for OD4S: Dryness (0-5), Change From Baseline / OD4S: Grittiness (0-5), Change From Baseline: vehicle +0.1, P-Value 0.006; for OD4S: Discomfort (0-5), Change From Baseline / VAS Dryness (0-100), Change From Baseline: P-Value 0.003; for VAS Dryness (0-100), Change From Baseline: vehicle +2
Description: The objective of the study is to evaluate the efficacy of reproxalap, as assessed by tear reactive aldehyde species (RASP) levels, after single and multiple doses in subjects with dry eye disease. The efficacy of reproxalap will also be assessed by tear RASP levels, conjunctival redness, Schirmer's Test, and dry eye symptoms after dosing immediately prior to and during exposure to the Controlled Adverse Environment (CAE®) over 2 hours, in subjects with dry eye disease. CAE® chambers allow standardization of variables, such as temperature, humidity, airflow, and visual tasking (see Calonge et al., Current Eye Res., 2018, 43(4):445-450; see also Ousler, III et al., Ophthalmol Ther., 2017, 6(2): 263-276) Dosage/Dose Regimen. A Reproxalap solution (0.25% w/v or 0.1% w/v) is administered topically to both eyes. The control is a Vehicle Control Solution. The test article is administered QID on Day 1 (Visit 2). On Day 2 (Visit 3), test article is administered once 2 or 5 minutes immediately prior to the CAE®, once 45 minutes after initiation of the CAE®, and once at CAE® exit. The primary endpoint is the change in levels of reactive aldehyde species (RASP) in tears. Secondary endpoints include the following: • Visual analog scale eye dryness score assessed over 90 minutes in CAE®. • Ora Calibra Ocular Discomfort Scale assessed over 90 minutes in CAE®. • Conjunctival redness assessed at over 90 minutes via digital photography in the CAE® (Key Secondary Sign Endpoint). • Schirmer's Test assessed 10 minutes after dosing. • Post-CAE® RASP change from baseline. General Statistical Methods and Types of Analyses. The primary endpoint and secondary endpoints of Schirmer's Test and post-CAE® RASP is assessed via analysis of covariance (ANCOVA), with baseline score as a covariate. Initial Cohort of the trial will enroll twenty subject who meet the inclusion criteria. The Initial Cohort phase will be limited to Visit 1 (Screening), Visit 2 (Day 1), and Visit 3 (Day 2). At Day 1, evaluations include Dry Eye symptoms, Schirmer's test, and tear RASP levels. At Day 2 (Chamber test), evaluations include Dry Eye symptoms, Ocular Redness, and tear RASP levels. • Day 1 Schirmer's Test results is based on improvement after a single dose; all other Day 1 assessments were performed over 24 hours of QID dosing.

[2] = test system: subjects with dry eye disease; assay: CAE clinical study, initial cohort, Day 2 dry eye chamber
Description: The objective of the study is to evaluate the efficacy of reproxalap, as assessed by tear reactive aldehyde species (RASP) levels, after single and multiple doses in subjects with dry eye disease. The efficacy of reproxalap will also be assessed by tear RASP levels, conjunctival redness, Schirmer's Test, and dry eye symptoms after dosing immediately prior to and during exposure to the Controlled Adverse Environment (CAE®) over 2 hours, in subjects with dry eye disease. CAE® chambers allow standardization of variables, such as temperature, humidity, airflow, and visual tasking (see Calonge et al., Current Eye Res., 2018, 43(4):445-450; see also Ousler, III et al., Ophthalmol Ther., 2017, 6(2): 263-276) Dosage/Dose Regimen. A Reproxalap solution (0.25% w/v or 0.1% w/v) is administered topically to both eyes. The control is a Vehicle Control Solution. The test article is administered QID on Day 1 (Visit 2). On Day 2 (Visit 3), test article is administered once 2 or 5 minutes immediately prior to the CAE®, once 45 minutes after initiation of the CAE®, and once at CAE® exit. The primary endpoint is the change in levels of reactive aldehyde species (RASP) in tears. Secondary endpoints include the following: • Visual analog scale eye dryness score assessed over 90 minutes in CAE®. • Ora Calibra Ocular Discomfort Scale assessed over 90 minutes in CAE®. • Conjunctival redness assessed at over 90 minutes via digital photography in the CAE® (Key Secondary Sign Endpoint). • Schirmer's Test assessed 10 minutes after dosing. • Post-CAE® RASP change from baseline. Secondary endpoints of conjunctival redness and symptoms in the CAE® is assessed via mixed effect model for repeated measures (MMRM), with baseline score as a covariate, and time and test article group as factors. In one of the CAE® studies, one dose is given 2 min prior to chamber entry. Another dose is administered 45 min after chamber entry. In some instances, subjects receive one day prior to chamber entry. Thus, some subjects receive: one dose on day prior to, one dose immediately before, and one dose 45 min after entry into a 90 min dry eye chamber with minimal humidity, high airflow, and forced visual tasking. In some instances, the subjects are given a dose at exit of the CAE®.

[3] = test system: malondialdehyde (MDA) adducts in tears; assay: MDA adduct competitive ELISA of tears, Phase 2a clinical study; details: 28 days / 4-week treatment, all treatment groups pooled
Description: The study was to assess levels of malondialdehyde (MDA) adducts in tears collected from subjects with dry eye disease enrolled in a Phase 2a, randomized, double-masked, clinical study to assess the safety, tolerability, and pharmacodynamic activity of ADX-102 ophthalmic solution in subjects with dry eye diseases, also referred to herein as dry eye syndrome (DES).
Tears were collected during Visit 1, prior to treatment, and during Visit 3, following four weeks of treatment. Treatment groups consisted of ADX-102 Ophthalmic Solution (0.5%), ADX-102 Ophthalmic Solution (0.1%), and ADX-102 Ophthalmic Lipid Solution (0.5%). […]
The assay is a competitive ELISA. […] The plate is read in a microplate reader at 450 nm. The assay OD reading decreases with increasing MDA adducts in the samples, as the adsorbed MDA competes for binding to the MDA antibody with MDA adducts in the test sample. […]
DES Study Samples. Based on the results of the pilot assay, a 1:60 dilution was determined to maximize the likelihood of the OD values falling within the linear portion of the standard curve, and thus provide the most accurate results. All tear samples from subjects (0.5% ADX-102 Ophthalmic Solution) and (0.1% ADX-102 Ophthalmic Solution) were analyzed, but results from some tear samples were excluded from the data analysis due to contamination with ocular staining dye in the Visit 3 samples. […]

[4] = Safety of topical ocular reproxalap across clinical trials
Description: • Day 1 Schirmer's Test results is based on improvement after a single dose; all other Day 1 assessments were performed over 24 hours of QID dosing.

[5] = Day 1, over 24 hours of QID dosing
[6] = Day 1, over 24 hours of QID dosing, listed as reproxalap

## CC(C)(O)c1nc2ccc(Cl)cc2cc1N [Reproxalap, reproxalap]
[1]
  Schirmer's Test, Change From Baseline: +3.4 mm
[1]; listed as reproxalap
  Schirmer's Test, Change From Baseline: directionally in favor of reproxalap over vehicle
[1]; [5]
  OD4S: Dryness (0-5), Change From Baseline: −1.2
  OD4S: Grittiness (0-5), Change From Baseline: −1.1
  VAS Dryness (0-100), Change From Baseline: −26
[1]; [6]
  OD4S: Dryness (0-5), Change From Baseline: statistically superior to vehicle
  OD4S: Grittiness (0-5), Change From Baseline: statistically superior to vehicle
  VAS Dryness (0-100), Change From Baseline: statistically superior to vehicle
[1]; Day 1, over 24 hours of QID dosing, vehicle +0.4
  OD4S: Discomfort (0-5), Change From Baseline: −0.7
[1]; Day 1, over 24 hours of QID dosing, vehicle +0.4, listed as reproxalap
  OD4S: Discomfort (0-5), Change From Baseline: statistically superior to vehicle
[1]; Day 1, over 24 hours of QID dosing, vehicle +0.4, P-Value 0.07
  Ocular Discomfort Scale (0-4), Change From Baseline: −0.7
[1]; Day 1, over 24 hours of QID dosing, vehicle +0.4, P-Value 0.23
  OD4S: Sting (0-5), Change From Baseline: −0.1
[1]; Day 1, over 24 hours of QID dosing, vehicle +0.8, P-Value 0.07
  OD4S: Burn (0-5), Change From Baseline: −0.1
[2]; Day 2, dry eye chamber, p=0.03
  ocular redness versus vehicle: statistically significant improvement over vehicle
[2]; Day 2, over all time points in aggregate in the dry eye chamber, p<0.0001
  ocular discomfort score versus vehicle: statistically superior to vehicle
[2]; Day 2, over all time points in aggregate in the dry eye chamber, p=0.001
  visual analog scale (VAS) ocular dryness versus vehicle: statistically superior to vehicle
[2]; dry eye chamber
  time to improvement in ocular symptoms and redness following dosing: within minutes
[3]
  tear MDA adduct level after treatment relative to baseline, pooled groups: statistically lower
[4]; human, in vivo
  most commonly reported adverse event in clinical trials: mild instillation site irritation
[4]; studied in over 1,100 patients
  safety in clinical trials: no observed safety concerns
